These results are taken from US20250179059A1 (The Regents of the University of California, priority 2021, published 2025).

Assay [1] relates to human SKM-1 acute myeloid leukemia cells. The experiment in a line: SKM-1 antiproliferation cell-based assay (ATPlite). The conditions noted are these: Homo sapiens, SKM-1, 96 h, SKM-1 antiproliferation assay, 4 days, Table C2. The procedure: The cell-based assay indirectly measures cell density (and therefore proliferation and/or survival) by detecting total ATP concentration in a homogeneous format. Briefly, human SKM-1 acute myeloid leukemia cells (Leibniz Institute DSMZ #ACC 547) proliferating in log phase are collected by centrifugation, re-suspended in culture media (RPMI 1640/15% FBS/100 U/mL penicillin/100 μg/mL streptomycin) and diluted to 34722 cells/mL in media after counting. Then 180 μL cells are plated per well into a 96-well tissue-culture treated, clear bottom plate (Coming #3603). A 96-well compound plate (Corning #3357) is then generated by serial dilution of compounds into DMSO over nine concentrations and adding separate negative (DMSO) and positive control (reference compound) wells. Each compound concentration is tested in triplicate. First, 1 μL from each well of the compound plate is added to 99 μL culture media in an intermediate plate and mixed by pipetting. Then 20 μL of the diluted compounds in media are added to the assay plate containing the cells. The assay plate is maintained for 4 days in a standard cell culture incubator. At the end of the incubation period, 100 μL ATPlite Istep (PerkinElmer) is added to the assay plate wells, and the resulting luminescence is detected using an Infinite M1000 or a Spark multimode plate reader (Tecan). Data analysis is performed in Prism (GraphPad Software). For curve fitting, a non-linear regression, variable slope equation is used to calculate cellular IC50s.
(In general: In ATP-based viability assays light output follows the ATP content of the culture.)

For assay [2], the target named is T1, human BRD4 bromodomain II (Homo sapiens, UniProt O60885).
T1 construct: human BRD4 bromodomain II [based on Genbank NM_058243, residues 349-460]; host or cells: E. coli
The experiment in a line: Bromodomain binding assay (AlphaScreen), BRD4 BDII. Particulars: AlphaScreen assay, Table C2; read-out: BRD4 BDII IC50. Summed up:
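Inhibition of acetyl-H4 peptide binding to human BRD4 bromodomains is measured by bead-based proximity (AlphaScreen) in pH 7.5 HEPES buffer containing 0.05% CHAPS and 0.1% BSA. Ten compound concentrations in 3-fold steps give competitive binding IC50s.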
(Alpha assays give light when donor and acceptor beads are brought close together.)

SMILES strings stand for the structures.

Turning to `CC(=O)Nc1ccc(-c2cccc(-c3cccc(N4CCN[C@H](C)C4)c3)c2O)cc1F` [Example 193, (R)-N-(3-fluoro-2′-hydroxy-3″-(3-methylpiperazin-1-yl)-[1,1′:3′,1″-terphenyl]-4-yl)acetamide], the GI50 in assay [1] is 300 to 3000 nM. Further, the IC50 in assay [2] fell in the range of 1 to 10 nM.
`CC(=O)Nc1ccc(-c2cccc(-c3ccnc(N4CCC(O)C4)c3)c2O)cc1F` (centres unmarked) [Example 199, N-(3-fluoro-2′-hydroxy-3′-(2-(3-hydroxypyrrolidin-1-yl)pyridin-4-yl)-[1,1′-biphenyl]-4-yl)acetamide] displayed a concentration for 50% growth inhibition (GI50) in assay [1] of 300 to 3000 nM. Further, in assay [2], the IC50 lay in the range of 1 to 10 nM.
In the case of `CC(=O)Nc1ccc(-c2cccc(-c3cccc(N4CC5CNC(C5)C4)c3)c2O)cc1F` (centres unmarked) [Example 206, N-(3″-(3,6-diazabicyclo[3.2.1]octan-3-yl)-3-fluoro-2′-hydroxy-[1,1′:3′,1″-terphenyl]-4-yl)acetamide], the GI50 in assay [1] was in the range of 30 to 300 nM. The IC50 in assay [2] fell in the range of 1 to 10 nM.
In turn, `O=C1CCCN1c1ccc(-c2cccc(-c3ccnc(N4CCNCC4)c3)c2O)cc1Cl` [Example 209, 1-(3-chloro-2′-hydroxy-3′-(2-(piperazin-1-yl)pyridin-4-yl)-[1,1′-biphenyl]-4-yl)pyrrolidin-2-one] returned a GI50 in assay [1] of 30 to 300 nM. For the same compound, the IC50 in assay [2] lay within 1 to 10 nM.
In turn, `CC(=O)Nc1ccc(-c2cccc(-c3cc(Cl)cc(N4CCNCC4)c3)c2O)cc1F` [Example 214, N-(3″-chloro-3-fluoro-2′-hydroxy-5″-(piperazin-1-yl)-[1,1′:3′,1″-terphenyl]-4-yl)acetamide] had a concentration for 50% growth inhibition (GI50) in assay [1] of 300 to 3000 nM. For the same compound, in assay [2], the IC50 was 1 to 10 nM.
In assay [1], `O=C1CCCN1c1ccc(-c2cc(F)cc(-c3ccnc(N4CCNCC4)c3)c2O)cc1Cl` [Example 217, 1-(3-chloro-5′-fluoro-2′-hydroxy-3′-(2-(piperazin-1-yl)pyridin-4-yl)-[1,1′-biphenyl]-4-yl)pyrrolidin-2-one] gave a GI50 of 300 to 3000 nM. Besides, the IC50 in assay [2] was in the range of 1 to 10 nM.
Compound `CC(=O)Nc1ccc(-c2cc(F)cc(-c3ccnc(N4CCNCC4)c3)c2O)cc1Cl` [Example 222, N-(3-chloro-5′-fluoro-2′-hydroxy-3′-(2-(piperazin-1-yl)pyridin-4-yl)-[1,1′-biphenyl]-4-yl)acetamide] registered a GI50 in assay [1] of 300 to 3000 nM. Besides, the IC50 in assay [2] fell in the range of 1 to 10 nM.
Consider `CC(=O)Nc1ccc(-c2cc(F)cc(-c3ccnc(N4CCNCC4)c3)c2O)cc1F` [Example 224, N-(3,5′-difluoro-2′-hydroxy-3′-(2-(piperazin-1-yl)pyridin-4-yl)-[1,1′-biphenyl]-4-yl)acetamide], for which the concentration for 50% growth inhibition (GI50) in assay [1] lay within 30 to 300 nM. Besides, in assay [2], the IC50 was in the range of 1 to 10 nM.
The compound `CC(=O)Nc1ccc(-c2cccc(-c3cc(Cl)nc(N4CCNCC4)c3)c2O)cc1F` [Example 226, N-(3′-(2-chloro-6-(piperazin-1-yl)pyridin-4-yl)-3-fluoro-2′-hydroxy-[1,1′-biphenyl]-4-yl)acetamide] gave a concentration for 50% growth inhibition (GI50) in assay [1] of 300 to 3000 nM. The IC50 in assay [2] was in the range of 1 to 10 nM.
Regarding `CC(=O)Nc1ccc(-c2cccc(-c3ccnc(N4CCC(CO)C4)c3)c2O)cc1F` (centres unmarked) [Example 230, N-(3-fluoro-2′-hydroxy-3′-(2-(3-(hydroxymethyl)pyrrolidin-1-yl)pyridin-4-yl)-[1,1′-biphenyl]-4-yl)acetamide], in assay [1], the GI50 lay in the range of 300 to 3000 nM. The IC50 in assay [2] was in the range of 1 to 10 nM.
In assay [1], `O=C1NCCN1c1ccc(-c2cccc(-c3ccnc(N4CCNCC4)c3)c2O)cc1F` [Example 231, 1-(3-fluoro-2′-hydroxy-3′-(2-(piperazin-1-yl)pyridin-4-yl)-[1,1′-biphenyl]-4-yl)imidazolidin-2-one] yielded a GI50 of 300 to 3000 nM. Besides, the IC50 in assay [2] fell in the range of 1 to 10 nM.
In the case of `CC(=O)Nc1ccc(-c2cccc(-c3cc(C#N)cc(N4CCNCC4)c3)c2O)cc1F` [Example 234, N-(3″-cyano-3-fluoro-2′-hydroxy-5″-(piperazin-1-yl)-[1,1′:3′,1″-terphenyl]-4-yl)acetamide], the GI50 in assay [1] is 30 to 300 nM. Further, the IC50 in assay [2] was in the range of 1 to 10 nM.
For the compound `CC(=O)Nc1ccc(-c2cc(F)cc(-c3ccc(C#N)c(N4CCNCC4)c3)c2O)cc1F` [Example 235, N-(4″-cyano-3,5′-difluoro-2′-hydroxy-3″-(piperazin-1-yl)-[1,1′:3′,1″-terphenyl]-4-yl)acetamide], in assay [1], the GI50 lay in the range of 30 to 300 nM. For the same compound, the IC50 in assay [2] fell in the range of 1 to 10 nM.
`CC(=O)Nc1ccc(-c2cccc(-c3ccc(C#N)c(N4CCNCC4)c3)c2O)cc1F` [Example 236, N-(4″-cyano-3-fluoro-2′-hydroxy-3″-(piperazin-1-yl)-[1,1′:3′,1″-terphenyl]-4-yl)acetamide] yielded a GI50 in assay [1] of 30 to 300 nM. The IC50 in assay [2] fell in the range of 1 to 10 nM.
The matching figures for `CC(=O)Nc1ccc(-c2cc(F)cc(-c3ccc(F)c(N4CCNCC4)c3)c2O)cc1F` [Example 237, N-(3,4″,5′-trifluoro-2′-hydroxy-3″-(piperazin-1-yl)-[1,1′:3′,1″-terphenyl]-4-yl)acetamide]: 30 to 300 nM and 0.01 to 1 nM.
In turn, `O=C1CCCN1c1ccc(-c2cccc(-c3ccnc(N4CCNCC4)c3)c2O)cc1F` [Example 238, 1-(3-fluoro-2′-hydroxy-3′-(2-(piperazin-1-yl)pyridin-4-yl)-[1,1′-biphenyl]-4-yl)pyrrolidin-2-one] yielded a concentration for 50% growth inhibition (GI50) in assay [1] of 30 to 300 nM. For the same compound, the IC50 in assay [2] was 1 to 10 nM.
As to `CC(=O)Nc1ccc(-c2cccc(-c3ccnc(N4CC[C@H](O)C4)c3)c2O)cc1F` [Example 239, (S)-N-(3-fluoro-2′-hydroxy-3′-(2-(3-hydroxypyrrolidin-1-yl)pyridin-4-yl)-[1,1′-biphenyl]-4-yl)acetamide], in assay [1], the GI50 lay in the range of 300 to 3000 nM. In addition, the IC50 in assay [2] lay within 1 to 10 nM.
Take `CN1CCN(c2ccc(-c3cccc(-c4ccnc(N5CCNCC5)c4)c3O)cc2F)C1=O` [Example 240, 1-(3-fluoro-2′-hydroxy-3′-(2-(piperazin-1-yl)pyridin-4-yl)-[1,1′-biphenyl]-4-yl)-3-methylimidazolidin-2-one]: the GI50 in assay [1] lay in the range of 30 to 300 nM. For the same compound, in assay [2], the IC50 was 1 to 10 nM.
For `CC(=O)Nc1ccc(-c2cccc(-c3cc(C)nc(N4CCNCC4)c3)c2O)cc1F` [Example 244, N-(3-fluoro-2′-hydroxy-3′-(2-methyl-6-(piperazin-1-yl)pyridin-4-yl)-[1,1′-biphenyl]-4-yl)acetamide], the GI50 in assay [1] fell in the range of 30 to 300 nM. In addition, the IC50 in assay [2] was 1 to 10 nM.
`CC(=O)Nc1ccc(-c2cccc(-c3ccnc(N4CC[C@H](N)C4)c3)c2O)cc1F` [Example 248, (S)-N-(3′-(2-(3-aminopyrrolidin-1-yl)pyridin-4-yl)-3-fluoro-2′-hydroxy-[1,1′-biphenyl]-4-yl)acetamide]: the GI50 in assay [1] lay within 30 to 300 nM. For the same compound, in assay [2], the half-maximal inhibitory concentration (IC50) lay within 1 to 10 nM.
For `O=C1CCCN1c1ccc(-c2cccc(-c3cncc(N4CCNCC4)c3)c2O)cc1F` [Example 249, 1-(3-fluoro-2′-hydroxy-3′-(5-(piperazin-1-yl)pyridin-3-yl)-[1,1′-biphenyl]-4-yl)pyrrolidin-2-one], the GI50 in assay [1] was 30 to 300 nM. Besides, the IC50 in assay [2] lay in the range of 1 to 10 nM.
In turn, `CC(=O)Nc1ccc(-c2cccc(-c3ccnc(N4CC[C@@H](O)C4)c3)c2O)cc1F` [Example 251, (R)-N-(3-fluoro-2′-hydroxy-3′-(2-(3-hydroxypyrrolidin-1-yl)pyridin-4-yl)-[1,1′-biphenyl]-4-yl)acetamide] displayed a GI50 in assay [1] of 30 to 300 nM. Besides, the IC50 in assay [2] was in the range of 10 to 100 nM.

A word on the GI50: it is the concentration giving 50% growth inhibition. For orientation: IC50 means the concentration that gives 50% inhibition.
